Experimental data: US20080269237A1, “CARBAMIC ACID COMPOUNDS COMPRISING A PIPERAZINE LINKAGE AS HDAC INHIBITORS” (TOPOTARGET UK LIMITED, priority 2002, published 2008)
Read-outs that look alike come from different tables or passages of the source.

Legend:
[1] = test system: K11 (HPV E7 transformed human keratinocyte line); test: Secondary assay: cell proliferation inhibition WST-1, K11; type: cell-based; details: K11, 48 h, read-out: Cell Proliferation Inhibition WST-1 (IC50 unless otherwise specified) K11
From the text: (§1) Compounds with HDAC inhibition activity, as determined using the primary assay, were subsequently evaluated using secondary cell-based assays. The following cell lines were used:
(§2) HeLa—Human cervical adenocarcinoma cell line (ATCC ref. No. CCL-2). K11—HPV E7 transformed human keratinocyte line provided by Pidder Jansen-Duerr, Institut für Biomedizinische Altemsforschung, Innsbruck, Austria. NHEK-Ad—Primary human adult keratinocyte line (Cambrex Corp., East Rutherford, N.J., USA).
(§3) Cells were plated in 96-well plates at 3-10×10^3 cells/well in 100 μL of culture medium. The following day, different concentrations of candidate compounds were added and the cells incubated at 37° C. for 48 h. Subsequently, 10 μL/well of WST-1 reagent was added and the cells reincubated for 1 hour. After the incubation time, absorbance was measured.
(§4) WST-1 is a tetrazolium salt which is cleaved to formazan dye by cellular enzymes. An expansion in the number of viable cells results in an increase in the overall activity of mitochondrial dehydrogenases in the sample. This augmentation in the enzyme activity leads to an increase in the amount of formazan dye formed, which directly correlates to the number of metabolically active cells in the culture. The formazan dye produced is quantified by a scanning multiwell spectrophotometer by measuring the absorbance of the dye solution at 450 nm wavelength (reference wavelength 690 nm).
(§5) Percent activity (% activity) in reducing the number of viable cells was calculated for each test compound as:
(§6) % activity={(S^C−B)/(S^o−B)}×100
(§7) IC50 values were calculated using the software package Prism 3.0 (GraphPad Software Inc., San Diego, Calif.), setting top value at 100 and bottom value at 0.

[2] = test system: NHEK-Ad (primary human adult keratinocyte line); test: Secondary assay: cell proliferation inhibition WST-1, NHEK-Ad; type: cell-based; details: NHEK-AD; 48 h; read-out: Cell Proliferation Inhibition WST-1 (IC50 unless otherwise specified) NHEK-AD
From the text: as §1, §2, §3
WST-1 is a tetrazolium salt which is cleaved to formazan dye by cellular enzymes. […] The formazan dye produced is quantified by a scanning multiwell spectrophotometer by measuring the absorbance of the dye solution at 450 nm wavelength (reference wavelength 690 nm).
Percent activity (% activity) in reducing the number of viable cells was calculated for each test compound as: […]
as §7

[3] = test system: JURKAT (human T-cell line); test: Secondary assay: cell proliferation inhibition WST-1, Jurkat; type: cell-based; details: 48 h, read-out: Cell Proliferation Inhibition WST-1 (IC50 unless otherwise specified) Jurkat
[4] = test system: HDAC (HeLa cell extract); test: Primary assay: deacetylase activity, HeLa cell extract as source of HDAC; type: biochemical, human; details: for HDAC Inhibition HeLa, % @ 500 nM: 500 nM compound; for IC50: read-out: HDAC Inhibition (IC50 unless otherwise specified) HeLa; for HDAC Inhibition HeLa, % @ 100 nM: 100 nM compound
Protocol: Decreased activity indicates increased inhibition by the test compound.
Alternatively, the activity of the compounds as HDAC inhibitors was determined using a commercially available fluorescent assay kit: (Fluor de Lys™, BioMol Research Labs, Inc., Plymouth Meeting, USA).
Extensive comparative studies have shown that Primary Assay (1) and Primary Assay (2), discussed above, yield equivalent results. Primary Assay results reported herein are (a) exclusively from (1); (b) exclusively from (2); or (c) from both (1) and (2).
The HeLa cell extract was made from HeLa cells (ATCC Ref. No. CCL-2) by freeze-thawing three times in 60 mM TrisCl pH 8.0, 450 mM NaCl, 30% glycerol. Two cell volumes of extraction buffer were used, and particulate material was centrifuged out (20800 g, 4° C., 10 min). The supernatant extract having deacetylase activity was aliquoted and frozen for storage.
as §6

[5] = test system: HeLa cells; test: Secondary assay: cell proliferation inhibition WST-1, HeLa; type: cell-based; details: Homo sapiens, 48 h, read-out: Cell Proliferation Inhibition WST-1 (IC50 unless otherwise specified) HeLa
From the text: as §1, §2, §3, §4, §5, §6, §7

Row | Compound | melting point [°C] | IC50 [4] [nM] | also measured
1 | Nc1ccccc1NC(=O)c1ccc(CNC(=O)OCc2cccnc2)cc1 [MS-275, reference compound] | – | – | IC50 [1]: 9160 nM; IC50 [2]: 3100 nM; IC50 [3]: 365 nM
2 | O=C(CCCCCC(=O)N1CCN(C(c2ccccc2)c2ccccc2)CC1)NO [PX117403, 7-(4-Benzhydryl-piperazin-1-yl)-7-oxo-heptanoic acid hydroxyamide] | 157 to 159 | – | HDAC Inhibition HeLa, % @ 500 nM [4]: 28% @ 500 nM
3 | O=C(CCCCCC(=O)N1CCN(c2ccccc2)CC1)NO [PX117404, 7-Oxo-7-(4-phenyl-piperazin-1-yl)-heptanoic acid hydroxyamide] | 107 to 109 | – | HDAC Inhibition HeLa, % @ 500 nM [4]: 35% @ 500 nM
4 | O=C(CCCCCCC(=O)N1CCN(C(c2ccccc2)c2ccccc2)CC1)NO [PX117764] | 126 to 129 | 785 | IC50 [5]: 29200 nM; IC50 ([1]; Homo sapiens, Keratinocyte): 9450 nM; IC50 ([3]; Homo sapiens): 2680 nM
5 | COc1ccccc1N1CCN(C(=O)CCCCCCC(=O)NO)CC1 [PX117768, 8-[4-(2-Methoxy-phenyl)-piperazin-1-yl]-8-oxo-octanoic acid hydroxyamide] | 135 to 137 | 175 | IC50 [5]: 3300 nM; IC50 ([1]; Homo sapiens, Keratinocyte): 8670 nM; IC50 ([3]; Homo sapiens): 1040 nM
6 | O=C(/C=C/c1cccc(S(=O)(=O)N2CCN(c3ccccc3)CC2)c1)NO [PX118490, (E)-N-Hydroxy-3-{3-[(4-phenyl-1-piperazinyl)sulfonyl]phenyl}-2-propenamide] | – | – | IC50 [5]: 1000 nM; IC50 ([1]; Homo sapiens, Keratinocyte): 2490 nM; HDAC Inhibition HeLa, % @ 100 nM [4]: 59% @ 100 nM; IC50 ([3]; Homo sapiens): 460 nM
7 | O=C(CCCCCCC(=O)N1CCN(c2ccccc2Cl)CC1)NO [PX118791, 8-[4-(2-Chloro-phenyl)-piperazin-1-yl]-8-oxo octanoic acid hydroxyamide] | 131 to 132 | 36 | –
8 | O=C(CCCCCCC(=O)N1CCN(c2cccc(Cl)c2)CC1)NO [PX118792, 8-[4-(3-Chloro-phenyl)-piperazin-1-yl]-8-oxo octanoic acid hydroxyamide] | 122 to 124 | 34 | –
9 | O=C(CCCCCC(=O)N1CCN(c2ccccc2Cl)CC1)NO [PX118793, 7-[4-(2-Chloro-phenyl)-piperazin-1-yl]-7-oxo heptanoic acid hydroxyamide] | 128 to 130 | 188 | –
10 | O=C(CCCCCC(=O)N1CCN(c2cccc(Cl)c2)CC1)NO [PX118794, 7-[4-(3-Chloro-phenyl)-piperazin-1-yl]-7-oxo heptanoic acid hydroxyamide] | 120 to 122 | 74 | –
11 | O=C(/C=C/c1cccc(S(=O)(=O)N2CCN(c3ccccn3)CC2)c1)NO [PX118807, (E)-N-Hydroxy-3-{3-[(4-(2-pyridinyl)-1-piperazinyl)sulfonyl]phenyl}-2-propenamide] | – | – | HDAC Inhibition HeLa, % @ 100 nM [4]: 60% @ 100 nM
12 | COc1ccccc1N1CCN(S(=O)(=O)c2cccc(/C=C/C(=O)NO)c2)CC1 [PX118810, (E)-N-Hydroxy-3-{3-[(4-(2-methoxyphenyl)-1-piperazinyl)sulfonyl]phenyl}-2-propenamide] | 190 | 46 | –
13 | O=C(/C=C/c1cccc(S(=O)(=O)N2CCN(c3ccccc3Cl)CC2)c1)NO [PX118811, (E)-N-Hydroxy-3-{3-[(4-(2-chlorophenyl)-1-piperazinyl)sulfonyl]phenyl}-2-propenamide] | 183 | 42 | –
14 | O=C(/C=C/c1cccc(S(=O)(=O)N2CCN(c3cccc(Cl)c3)CC2)c1)NO [PX118812, (E)-N-Hydroxy-3-{3-[(4-(3-chlorophenyl)-1-piperazinyl)sulfonyl]phenyl}-2-propenamide] | 201 | 26 | –
15 | O=C(CCCCCCC(=O)N1CCN(C(=O)c2ccc3ccccc3c2)CC1)NO [PX118830, 8-[4-(Naphthalene-2-carbonyl)-piperazin-1-yl]-8-oxo octanoic acid hydroxyamide] | 133.5 to 134.5 | 133 | –
16 | O=C(CCCCCCC(=O)N1CCN(C(=O)c2ccccc2)CC1)NO [PX118831, 8-(4-Benzoyl-piperazin-1-yl)-8-oxo octanoic acid hydroxyamide] | 100 to 101 | 194 | –
17 | CN(C)c1ccc(C(=O)N2CCN(C(=O)CCCCCCC(=O)NO)CC2)cc1 [PX118832] | 90 to 92 | 212 | –
18 | N#Cc1ccc(C(=O)N2CCN(C(=O)CCCCCCC(=O)NO)CC2)cc1 [PX118844, 8-[4-(4-Cyanobenzoyl)-piperazin-1-yl]-8-oxo octanoic acid hydroxyamide] | 150 to 150.5 | 286 | –
19 | COc1ccc(N2CCN(C(=O)CCCCCCC(=O)NO)CC2)cc1 [PX118846, 8-[4-(4-Methoxyphenyl)-piperazin-1-yl]-8-oxo octanoic acid hydroxyamide] | 149 to 150 | 3.4 | –
20 | COc1cccc(N2CCN(C(=O)CCCCCCC(=O)NO)CC2)c1 [PX118847, 8-[4-(3-Methoxyphenyl)-piperazin-1-yl]-8-oxo octanoic acid hydroxyamide] | 122 to 122.5 | 31 | –
21 | CN(C)c1ccc(CC(=O)N2CCN(C(=O)CCCCCCC(=O)NO)CC2)cc1 [PX118848, 8-(4-{2-[4-(Dimethylamino)phenyl]acetyl}-1-piperazinyl)-N-hydroxy-8-oxooctanamide] | 77 to 79 | – | HDAC Inhibition HeLa, % @ 100 nM [4]: 44% @ 100 nM
22 | O=C(CCCCCCC(=O)N1CCN(c2ccc([N+](=O)[O-])cc2)CC1)NO [PX118849, N-Hydroxy-8-[4-(4-nitrophenyl)-1-piperazinyl]-8-oxooctanamide] | 125 to 127 | 26 | –
23 | O=C(CCCCCCC(=O)N1CCN(c2ncccn2)CC1)NO [PX118850, N-Hydroxy-8-oxo-8-[4-(2-pyrimidinyl)-1-piperazinyl]octanamide] | 132 to 133.5 | 70 | –
24 | oxamflatin [reference compound] | – | – | IC50 [3]: 170 nM
